Test results as given in patent US12128068B2, “Compositions and methods for dental mineralization” (The University of Melbourne, priority 2013, dated 2024).

Test: Remineralization of enamel subsurface lesions (transverse microradiography and densitometric image analysis)
Set-up: species or system Human
Details: 1% v/v sodium hypochlorite for 1 min at start of CPP-ACP remineralization, versus CPP-ACP alone
Description: Human tooth enamel demineralized subsurface lesions were prepared using the method of Reynolds, (1997). J Dent Res 76:1587-1595. The enamel surface was removed by polishing to remove all adsorbed protein. This removed around 50-100 μm of enamel to expose an uncoated, polished enamel surface for the study. […] A 1% w/v CPP-ACP pH 5.0 solution was prepared using Recaldent® [Kraft Foods], a commercial source of CPP-ACP that is prepared as per Example 1 at a pH of 5.0. All blocks were remineralized with the 1% CPP-ACP pH 5 solution for 7 days at 37° C. However, half were exposed to a 1% v/v sodium hypochlorite solution for 1 min at the start of the CPP-ACP remineralization period. In other words, the sodium hypochlorite and CPP-ACP were simultaneously exposed to the subsurface lesion. After remineralization the enamel blocks were embedded, sectioned and subjected to transverse microradiography and densitometric image analysis as previously described by Reynolds (1997) to determine percent mineral content gain (% Remineralization) shown in Table 3.

For OCl [hypochlorite, sodium hypochlorite], the “increase of the level of remineralization by the CPP-ACP solution” value was 31%.
